Reference: the NIST ThermoML archive (doi:10.1021/acs.jced.9b00028)
± gives the expanded uncertainty stated by the source.

Columns and labels:
[1] = Crystal; DSC
[2] = Molar enthalpy of transition or fusion; details: Crystal; DSC

For `Oc1c(Cl)cc(Cl)c2cccnc12` [5,7-dichloro-8-hydroxyquinoline], the Triple point temperature [1] was 452.15 ± 1.2 K and the “Molar enthalpy of transition or fusion” value [2] was 9.51 ± 0.263 kcal/mol.
With `Oc1ccc(Cl)c2cccnc12` [5-chloro-8-hydroxyquinoline] the Triple point temperature [1] was 395.48 ± 1.2 K and the “Molar enthalpy of transition or fusion” value [2] was 6.05 ± 0.227 kcal/mol.
